Tests used:
Assay type in all cases: functional
Mus musculus [1] = test: Analgesic activity by writhing test in mice after peroral administration; conditions: po
Mus musculus [2] = test: Analgesic activity by writhing test in mice after intraveneous administration; conditions: iv
Mus musculus [3] = test: Analgesic activity by writhing test in mice after subcutaneous administration; conditions: sc

| Compound | ED50 (Mus musculus [1]) [mg/kg] | ED50 (Mus musculus [2]) [mg/kg] | ED50 (Mus musculus [3]) [mg/kg] |
| --- | --- | --- | --- |
| CN(C)CCO[C@H](c1ccccc1)c1ccnn1C | 37 | 13 | 21 |
| CN(C)CCOC(c1ccccc1)c1ccnn1C (racemic) [CIZOLIRTINE] | 56 | 16 | 70 |
| CN(C)CCO[C@@H](c1ccccc1)c1ccnn1C | 67 | 28 | 127 |
| O=C([O-])Cc1ccccc1Nc1c(Cl)cccc1Cl.[Na+] [DICLOFENAC SODIUM] | 87 | – | – |
